According to US20240327421A1 (Marquette University, priority 2017, published 2024):
“Also recorded” adds a separate entry of the source.

Legend:
[1] = biological target: T1, Thyroid Hormone Receptor (TRβ) (Homo sapiens, UniProt P10828); assay: GeneBLAzer nuclear hormone receptor specificity assay, TRβ; assay type: cell-based; details: 0.25 to 25 μM; listed as ISP358-2
T1 sequence (P10828 217-461 limits assumed): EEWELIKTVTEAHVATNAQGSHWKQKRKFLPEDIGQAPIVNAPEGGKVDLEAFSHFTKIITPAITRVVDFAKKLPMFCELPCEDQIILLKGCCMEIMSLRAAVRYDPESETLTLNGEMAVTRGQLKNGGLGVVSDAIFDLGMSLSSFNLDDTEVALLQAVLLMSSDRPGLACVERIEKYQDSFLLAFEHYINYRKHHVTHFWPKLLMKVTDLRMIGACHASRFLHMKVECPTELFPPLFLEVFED

ERα = biological target: T2, ERα (Homo sapiens, UniProt P03372); assay: Cell-based luciferase reporter assay, full length ERα, antagonist mode
T2 construct: employs a full length and native ER (comprised of an ER LBD and an ER DBD)
T2 sequence (P03372 1-595): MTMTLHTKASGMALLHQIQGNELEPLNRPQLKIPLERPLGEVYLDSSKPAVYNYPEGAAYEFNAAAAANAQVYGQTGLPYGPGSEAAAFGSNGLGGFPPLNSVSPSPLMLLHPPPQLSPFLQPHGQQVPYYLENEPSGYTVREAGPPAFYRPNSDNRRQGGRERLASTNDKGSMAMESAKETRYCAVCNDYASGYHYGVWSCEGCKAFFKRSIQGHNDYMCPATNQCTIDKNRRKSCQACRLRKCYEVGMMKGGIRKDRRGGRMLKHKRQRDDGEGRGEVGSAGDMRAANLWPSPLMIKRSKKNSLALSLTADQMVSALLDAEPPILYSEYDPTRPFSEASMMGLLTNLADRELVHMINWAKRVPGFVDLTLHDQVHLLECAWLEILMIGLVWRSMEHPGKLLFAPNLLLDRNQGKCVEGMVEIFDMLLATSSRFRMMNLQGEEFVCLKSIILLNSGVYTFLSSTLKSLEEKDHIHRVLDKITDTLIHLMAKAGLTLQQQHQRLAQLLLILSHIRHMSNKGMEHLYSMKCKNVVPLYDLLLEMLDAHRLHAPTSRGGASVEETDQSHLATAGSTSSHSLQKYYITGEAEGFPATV

ovariectomized mice [2] = assay: Peripheral tissue pathology (H&E of liver, kidney, heart); assay type: in vivo; details: 24 h after single IP injection; 0.5 or 5 mg/kg ISP358-2, 0.05 mg/kg DPN
Procedure: Assessment of Potential Peripheral Pathology. To assess possible toxicity of ISP358-2 treatment to peripheral organs, ovariectomized mice received a single intraperitoneal injection of vehicle or ISP358-2, and liver, kidney, and heart tissues were collected 24 hours later. […] Tissues were fixed in 10% formalin buffered solution for 24 hours. Twenty specimens were processed and analyzed. Each specimen contained three pieces of tissue. The tissues from each animal was transferred to a labeled cassette and processed on an automated tissue processor following standard procedures. The tissues were then embedded in paraffin wax. No specific orientation of the tissue was performed. Four-micron sections were cut from each paraffin block and placed onto a slide. The slides were then stained using hematoxylin and cosin (H&E) on an automated stainer (FIGS. 13A-13L). The slides were then examined by a pathologist (ACM) who is board certified in anatomical pathology by the American Board of Pathology. All specimens contained three tissue samples corresponding to liver, kidney, and heart. In some instances, portions of adjacent tissues were also present. […] For heart, the myocytes and coronary vessels were examined, (2) evidence of inflammation was evaluated including hepatitis, glomerulonephritis, interstitial nephritis, and myocarditis, and (3) evidence of ischemic changes was examined. […]

ovariectomized mice [3] = assay: Object recognition memory consolidation test
ovariectomized mice [4] = assay: Object placement (spatial memory consolidation) test; details: for object placement: spatial memory consolidation after long-term ovariectomy: oral gavage 4 months after ovariectomy, same doses (0.5 or 5 mg/kg ISP358-2, 0.05 mg/kg DPN), preliminary
[5] = IP injection, 0.5 mg/kg, listed as ISP358-2, 0.5 mg/kg

OC[C@H]1CC[C@H](c2ccc(O)cc2)CC1 [Compound 16]
agonist activity, TRβ [1]: not an agonist; also recorded: no significant off-target activity | ERα antagonist activity (ERα; concentrations up to 10 μM, listed as ISP358-2): No measurable antagonist activity | IC50 (ERα; inhibition of estradiol-induced transcription, read-out: ERα antagon. IC50): > 10 µM | histological abnormalities / peripheral toxicity in liver, kidney, heart (ovariectomized mice [2]): unremarkable; also recorded: no obvious signs of peripheral toxicity; also recorded: Histological abnormalities were not detected | object recognition: time with novel object / memory consolidation (ovariectomized mice [3]; [5]): exhibited a significant preference for the novel object relative to chance; also recorded: most effectively enhanced consolidation; also recorded: enhanced memory consolidation | object recognition: time with novel object / memory consolidation (ovariectomized mice [3]; IP injection, 5 mg/kg): somewhat of a trend for the 5 mg/kg ISP358-2 to prefer the novel object | object recognition: time with novel object / memory consolidation (ovariectomized mice [3]; dorsal hippocampal infusion, 10 pg/hemisphere, tested 48 h after training, chance 15 s): Neither the vehicle nor 10 pg ISP358-2 groups showed a preference for the novel object | object recognition: time with novel object / memory consolidation (ovariectomized mice [3]; dorsal hippocampal infusion, 100 pg/hemisphere, tested 48 h after training, listed as ISP358-2): spent significantly more time than chance with the novel object; also recorded: enhanced memory consolidation; also recorded: significantly increased time was spent | object recognition: time with novel object / memory consolidation (ovariectomized mice [3]; dorsal hippocampal infusion, 1 ng/hemisphere, tested 48 h after training, listed as ISP358-2): spent significantly more time than chance with the novel object; also recorded: enhanced memory consolidation; also recorded: significantly increased time was spent | object recognition: time with novel object / memory consolidation (ovariectomized mice [3]; oral gavage, 0.5 mg/kg, listed as ISP358-2, 0.5 mg/kg): spent significantly more time with the novel object relative to chance; also recorded: enhanced memory consolidation | object recognition: time with novel object / memory consolidation (ovariectomized mice [3]; oral gavage, 5 mg/kg, listed as ISP358-2, 5 mg/kg): spent significantly more time with the novel object relative to chance; also recorded: most effective; also recorded: enhanced memory consolidation | object placement: time with moved object / memory consolidation (ovariectomized mice [4]; [5]): spent significantly more time than chance with the moved object; also recorded: most effectively enhanced consolidation; also recorded: enhanced memory consolidation | object placement: time with moved object / memory consolidation (ovariectomized mice [4]; IP injection, 5 mg/kg, listed as ISP358-2, 5 mg/kg): spent significantly more time than chance with the moved object; also recorded: also enhanced OP memory consolidation | object placement: time with moved object / memory consolidation (ovariectomized mice [4]; dorsal hippocampal infusion, 10 pg/hemisphere, tested 24 h after training, chance 15 s): did not spend significantly more time than chance with the moved object | object placement: time with moved object / memory consolidation (ovariectomized mice [4]; dorsal hippocampal infusion, 100 pg/hemisphere, tested 24 h after training, listed as ISP358-2): spent significantly more time than chance with the moved object; also recorded: enhanced memory consolidation; also recorded: significantly increased time was spent | object placement: time with moved object / memory consolidation (ovariectomized mice [4]; dorsal hippocampal infusion, 1 ng/hemisphere, tested 24 h after training, listed as ISP358-2): spent significantly more time than chance with the moved object; also recorded: enhanced memory consolidation; also recorded: significantly increased time was spent | object placement: spatial memory consolidation after long-term ovariectomy (ovariectomized mice [4]): did not enhance spatial memory consolidation | object placement: spatial memory consolidation after long-term ovariectomy (ovariectomized mice [4]; listed as ISP358-2): neither DPN nor ISP358-2 affected memory | object placement: time with moved object / memory consolidation (ovariectomized mice [4]; oral gavage, 0.5 mg/kg, within 1 month of ovariectomy, listed as ISP358-2, 0.5 mg/kg): exhibited a significant preference for the moved object relative to chance; also recorded: enhanced memory consolidation | object placement: time with moved object / memory consolidation (ovariectomized mice [4]; oral gavage, 5 mg/kg, within 1 month of ovariectomy, listed as ISP358-2, 5 mg/kg): exhibited a significant preference for the moved object relative to chance; also recorded: most effective; also recorded: enhanced memory consolidation
